Measurements taken from US20140120060A1, “TREATMENT OF RHEUMATOID ARTHRITIS AND ASTHMA USING PI3 KINASE INHIBITORS” (INFINITY PHARMACEUTICALS, INC., priority 2012, published 2014).
pEC50: −log10 of the molar value.

These compounds were tested on B cell (assay: B cell proliferation).
Format: cell-based

**Q.** How did the pEC50 turn out when `Cc1cccc2cc(Cn3nc(-c4cn[nH]c4)c4c(N)ncnc43)n(-c3ccccc3C(C)C)c(=O)c12` [Compound 185] was run?
**A.** > 7.00

**Q.** With `Cc1ccccc1-n1c(Cn2nc(-c3cn[nH]c3)c3c(N)ncnc32)cc2ccccc2c1=O` [Compound 187] as the compound, how does the pEC50 read?
**A.** > 7.00

**Q.** With `Cc1cccc2cc(Cn3nc(-c4cn[nH]c4)c4c(N)ncnc43)n(-c3ccccc3Cl)c(=O)c12` [Compound 188] as the compound, how does the pEC50 read?
**A.** > 7.00

**Q.** `CCc1ccccc1-n1c(Cn2nc(-c3cn[nH]c3)c3c(N)ncnc32)cc2cccc(C)c2c1=O` [Compound 190] was tested. Which pEC50 did it give?
**A.** > 7.00

**Q.** `Cc1ccccc1-n1c(C(C)Nc2ncnc3[nH]cnc23)cc2cccc(C)c2c1=O` (stereo not shown) [Compound 191] was tested. Which pEC50 did it give?
**A.** > 7.00

**Q.** With `Cc1cccc2cc([C@@H](C)Nc3ncnc4[nH]cnc34)n(-c3ccccc3)c(=O)c12` [Compound 195] as the compound, how does the pEC50 read?
**A.** > 6.00

**Q.** `Cc1cccc2cc([C@H](C)Nc3ncnc4[nH]cnc34)n(-c3ccccc3)c(=O)c12` [Compound 196] was tested. Which pEC50 did it give?
**A.** > 7.00

**Q.** `Cc1cccc2cc([C@@H](C)Nc3ncnc4[nH]cnc34)n(C3CCC3)c(=O)c12` [Compound 197] was tested. Which pEC50 did it give?
**A.** > 5.00

**Q.** `Cc1cccc2cc([C@H](C)Nc3ncnc4[nH]cnc34)n(C3CCC3)c(=O)c12` [Compound 198] was tested. Which pEC50 did it give?
**A.** > 7.00

**Q.** With `Cc1cccc2cc([C@@H](C)Nc3ncnc4[nH]cnc34)n(C3CC3)c(=O)c12` [Compound 199] as the compound, how does the pEC50 read?
**A.** < 5.00

**Q.** `Cc1cccc2cc([C@H](C)Nc3ncnc4[nH]cnc34)n(C3CC3)c(=O)c12` [Compound 200] was tested. Which pEC50 did it give?
**A.** > 7.00

**Q.** With `Cc1cccc2cc(Cn3nc(-c4ccc5oc(N)nc5c4)c4c(N)ncnc43)n(C3CC3)c(=O)c12` [Compound 201] as the compound, how does the pEC50 read?
**A.** > 7.00

**Q.** `CCC(Nc1ncnc2[nH]cnc12)c1cc2cccc(C)c2c(=O)n1-c1ccccc1C` (stereo not shown) [Compound 202] was tested. Which pEC50 did it give?
**A.** > 7.00

**Q.** `Cc1cccc2cc(C(C)Nc3ncnc4[nH]cnc34)n(C3CC3)c(=O)c12` (stereo not shown) [Compound 204] was tested. Which pEC50 did it give?
**A.** > 7.00

**Q.** `Cc1cccc2cc(Cn3nc(-c4ccc5oc(N)nc5c4)c4c(N)ncnc43)n(-c3ccccc3)c(=O)c12` [Compound 205] was tested. Which pEC50 did it give?
**A.** > 7.00

**Q.** `Cc1cccc2cc(Cn3nc(-c4cn[nH]c4)c4c(N)ncnc43)n(-c3ccccc3)c(=O)c12` [Compound 206] was tested. Which pEC50 did it give?
**A.** > 7.00

**Q.** `Cc1ccccc1-n1c(Cn2nc(-c3nn[nH]n3)c3c(N)ncnc32)cc2cccc(C)c2c1=O` [Compound 207] was tested. Which pEC50 did it give?
**A.** > 5.00

**Q.** `Cc1cccc2cc(Cn3nc(-c4ccc5oc(N)nc5c4)c4c(N)ncnc43)n(C3CCC3)c(=O)c12` [Compound 208] was tested. Which pEC50 did it give?
**A.** > 7.00

**Q.** With `Cc1cccc2cc(C(C)Nc3ncnc4[nH]cnc34)n(C(C)C)c(=O)c12` (stereo not shown) [Compound 209] as the compound, how does the pEC50 read?
**A.** > 7.00

**Q.** How did the pEC50 turn out when `Cc1cccc2cc(C(C)Nc3ncnc4[nH]cnc34)n(-c3ccccc3)c(=O)c12` (stereo not shown) [Compound 210] was run?
**A.** > 7.00

**Q.** How did the pEC50 turn out when `CCC(Nc1ncnc2[nH]cnc12)c1cc2cccc(C)c2c(=O)n1-c1ccccc1` (stereo not shown) [Compound 211] was run?
**A.** > 7.00

**Q.** How did the pEC50 turn out when `CCC(Nc1ncnc2[nH]cnc12)c1cc2cccc(C)c2c(=O)n1C1CCC1` (stereo not shown) [Compound 212] was run?
**A.** > 6.00

**Q.** How did the pEC50 turn out when `Cc1cccc2cc(C(C)Nc3ncnc4[nH]cnc34)n(-c3ccc(F)cc3)c(=O)c12` (stereo not shown) [Compound 213] was run?
**A.** > 7.00

**Q.** `Cc1cccc2cc(Cn3nc(-c4cn[nH]c4)c4c(N)ncnc43)n(-c3ccccc3C(F)(F)F)c(=O)c12` [Compound 214] was tested. Which pEC50 did it give?
**A.** > 7.00

**Q.** How did the pEC50 turn out when `Cc1cccc2cc(C(C)Nc3ncnc4[nH]cnc34)n(C3CCC3)c(=O)c12` (stereo not shown) [Compound 215] was run?
**A.** > 7.00

**Q.** How did the pEC50 turn out when `Cc1cccc2cc(C(C)Nc3ncnc4[nH]cnc34)n(-c3c(F)cccc3F)c(=O)c12` (stereo not shown) [Compound 216] was run?
**A.** > 7.00

**Q.** With `CCC(Nc1ncnc2[nH]cnc12)c1cc2cccc(C)c2c(=O)n1C(C)C` (stereo not shown) [Compound 219] as the compound, how does the pEC50 read?
**A.** > 7.00

**Q.** `CC(Nc1ncnc2[nH]cnc12)c1cc2ccccc2c(=O)n1-c1ccccc1` (stereo not shown) [Compound 220] was tested. Which pEC50 did it give?
**A.** > 7.00

**Q.** How did the pEC50 turn out when `CCC(Nc1ncnc2[nH]cnc12)c1cc2ccccc2c(=O)n1-c1ccccc1` (stereo not shown) [Compound 221] was run?
**A.** > 7.00

**Q.** With `Cc1cccc2cc(C(C)Nc3ncnc4[nH]cnc34)n(-c3cc(F)cc(F)c3)c(=O)c12` (stereo not shown) [Compound 222] as the compound, how does the pEC50 read?
**A.** > 7.00

**Q.** How did the pEC50 turn out when `CCC(Nc1ncnc2[nH]cnc12)c1cc2cccc(C)c2c(=O)n1-c1ccc(F)cc1` (stereo not shown) [Compound 223] was run?
**A.** > 7.00
